The record followed here is article PMC7944940 (Dalton transactions (Cambridge, England : 2003), 2021).

The target of this assay is PAN endonuclease (Influenza A virus, UniProt C3W5S0). In words: FRET-based enzymatic assay of PAN endonuclease inhibition. The assay is classed as biochemical.

Consider “[Ru(2,2´-bipyridine)2(pyridine)2][Cl]2 [Compound 9]”, for which the “enzymatic inhibition upon light irradiation” value is given as “negligible”. Regarding `[Cl][Ru][Cl].c1ccc(-c2ccccn2)nc1.c1ccc(-c2ccccn2)nc1` [Compound 2, Ru(2,2´-bipyridine)2(Cl)2], the IC50 (read-out: IC50 (dark)) was above 100 µM.

For orientation: IC50 means the concentration that inhibits the measured activity by half.
